Entries after “also recorded” stand apart in the source; their conditions may differ.
Legend:
[1] = system: Male Sprague-Dawley rats; test: Gentamicin-induced nephrotoxicity in rats; assay type: in vivo, rat; conditions: for kidney histopathologic analysis: kidney tissue collected day 11
Experimental: Rats were provided with free access to food and water and subjected to a 12-hour light and dark cycle. Rats were euthanized on day 11, and urine, plasma, and tissue samples were collected and analyzed. Tissue samples were fixed in 10% neutral buffered formalin or snap frozen. For histologic assessment, […] paraffin sections were prepared and stained with hematoxylin and eosin. The rat studies were undertaken in accordance with criteria outlined in a license granted under the Animals (Scientific Procedures) Act 1986 and approved by the University of Liverpool Animal Ethics Committee.
(§1) Microbead-based assays for rodent and human plasma and serum KIM-1 were developed, and extensive validation of the assays were performed using previously described approaches.^24 Urinary KIM-1 in rodents and humans was measured using microbead based assays as described previously.5,7,25,26 Capture antibodies (MAB 1817 for mouse, AF1750 for human [R&D Systems]), MARKE^25 antibody for rat (developed at Brigham and Women's Hospital) were conjugated with COOH polystyrene beads (Bio-Rad) with an amine coupling kit (Bio-Rad) using N-hydroxysuccinamide-1-ethyl-3-(3-dimethylaminopropyl) carbodiimide chemistry according to the manufacturer's protocol. Approximately 6000 beads in […] of sample diluent buffer (0.1M HEPES, 0.1M NaCl, 0.1% Tween-20, and 1% BSA; pH, 7.4; filter sterilized) were incubated with […] of sample or recombinant KIM-1 protein (1817-TM-050-CF for mice, 1750-TM for humans [R&D systems]), and KIM-FC for rats [developed at Brigham and Women's Hospital]) for 45 minutes. After incubation, beads were washed three times with PBS with Tween and incubated with biotinylated anti-KIM-1 detection antibody (BAF 1817 for mice, BAF 1750 for humans [R&D Systems]) and MARKE-2 for rats [developed at Brigham and Women's Hospital]) for 30 minutes. Beads were washed again with PBS with Tween and incubated for 15 minutes with the streptavidin-phycoerythrin solution (Invitrogen). The signal from the fluorochrome, which is directly proportional to the amount of antigen bound at the microbead surface, is captured using the Bio-Plex system (Bio-Rad). Data were interpreted using a five parametric logistic regression analysis.
The inventors also investigated whether plasma KIM-1 levels can serve as a biomarker in gentamicin-induced kidney injury in a different rodent species, rats. […] Plasma, urine, and kidney tissue were collected on day 11. The extent of kidney damage was assessed by histo-pathologic analysis and changes in plasma creatinine. […] The lumens of the tubules were filled with casts and dead cells. […] Thus, plasma KIM-1 is a sensitive marker of ischemia and toxin-induced injury to the proximal tubule in mice and rats.

[2] = system: male BALB/c mice; test: Liver injury in mice (CCl4), specificity of plasma KIM-1 to renal injury; assay type: in vivo, mouse; conditions: 48 hours
Experimental: As controls, male BALB/c mice were injected intraperitoneally once with 0.5 ml/kg of 10% CC14 in vegetable oil (n=5) or vegetable oil alone (vehicle, n=5), as previously de-scribed.^21 Forty-eight hours after CCl4 administration, mice were euthanized and urine, plasma, and tissue samples were collected and analyzed.
as §1
To evaluate the specificity of plasma KIM-1 to renal injury, mice were treated with carbon tetrachloride (CCl4), a known hepatotoxicant. […] Thus, plasma KIM-1 was not affected by liver injury.

[3] = single dose of 10% CCl4, 0.5 ml/kg

Molecule | kidney histopathologic analysis ([1]; 50 mg/kg gentamicin per day intraperitoneally for 10 days) | urinary KIM-1 levels (normalized to urine creatinine) ([1]; 10 daily doses of 50 or 200 mg/kg, day 11) | kidney sections, hematoxylin and eosin staining ([1]; 50 or 200 mg/kg daily for 10 days, euthanized day 11 (FIG. 1H)) | kidney histopathologic analysis ([1]; daily doses of 200 mg/kg gentamicin for 10 days) | liver histopathology ([2]; single dose of 10% CCl4, 0.5 ml/kg intraperitoneally) | kidney morphology (histopathology) [2, 3] | plasma KIM-1 [2, 3] | plasma creatinine [2, 3] | urinary KIM-1 [2, 3]
gentamicin | brush border loss, focal tubular necrosis, and interstitial inflammation | significantly increased | loss of brush border, necrosis, and sloughing of cells into the tubular lumen | extensive diffuse cell necrosis |  |  |  |  | 
ClC(Cl)(Cl)Cl [CCl4, carbon tetrachloride] |  |  |  |  | liver necrosis | No histopathologic changes | no significant alterations; also recorded: not changed | no significant alterations | no significant alterations
